Experimental data taken from article PMC4741889, “Ligand-based chemoinformatic discovery of a novel small molecule inhibitor targeting CDC25 dual specificity phosphatases and displaying in vitro efficacy against melanoma cells” (Oncotarget, 2015).

What was measured:
SAN cells = test: Apoptosis, subdiploid DNA content by PI flow cytometry, SAN cells; assay type: cell-based, human
Excerpt: PI incorporation followed by flow cytometric analysis was used to detect the effect of 7 on the number of nuclei with a sub-diploid content, a typical hallmark of apoptosis. A time-dependent increase of apoptosis was evident in both A2058 and SAN cells and in particular, the effect of 7 on cell death program was already evident after 24-h treatment (Figure 7). […] To further investigate on the capacity of 7 to induce apoptosis, the enzymatic activity of caspase-3, the final effector of apoptotic program, was monitored.
[…] After each treatment, cells were harvested with trypsin, centrifuged and the pellet was resuspended in phosphate-buffered saline (PBS). For cell cycle analysis, cells were fixed with 70% (v/v) cold ethanol and stored at −20°C for 1 h. Then, cells were washed with cold PBS, centrifuged and the pellets were resuspended in 200 μL of a non-lysis solution containing 50 μg/mL PI. For the evaluation of apoptosis, cells were not fixed in ethanol and directly resuspended in 200 μL of a hypotonic lysis solution containing 50 μg/mL PI. After incubation at 4°C for 30 min, cells were analyzed with a FACScan flow cytometer (Becton Dickinson) for evaluating the distribution in cell cycle phases or the presence of nuclei with a DNA content lower than the diploid.

CDC25B = biological target: T1, CDC25B (Homo sapiens, UniProt P30305); test: Residual phosphatase activity of recombinant CDC25B, fluorimetric OMFP assay; assay type: biochemical; details: 10 nM CDC25B, 25 μM OMFP, read-out: CDC25B residual activity (%) in the presence of [inhibitor]
T1 construct: Recombinant forms of the catalytic domains of CDC25A, -B and -C were obtained through the vectors pET28a-CDC25A-cd, pET28a-CDC25B-cd and pET28a-CDC25C-cd; made in house
T1 sequence (P30305 431-538 limits assumed): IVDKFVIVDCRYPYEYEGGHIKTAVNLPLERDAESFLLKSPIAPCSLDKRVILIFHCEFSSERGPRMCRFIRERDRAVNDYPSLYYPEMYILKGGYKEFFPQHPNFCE
Procedure: Among the twenty-five structures identified from the multiple ligand-based chemoinformatic approach, eight compounds (2, 10, 12–14, and 16–18) were excluded from the analysis, because endowed with a strong fluorescent signal, which interfered with the emission wavelength of the synthetic substrate 3-O-methylfluorescein phosphate (OMFP) used in the fluorimetric assay. The inhibition of the phosphatase activity of CDC25B by the remaining seventeen analogs was evaluated in the presence of two different concentrations of these compounds (Table 2). […] For this reason, only one of these latter compounds, i.e. 3, was included in the following analysis.
The enzymatic activity of the catalytic domains of CDC25A, -B and -C were determined through a fluorimetric method, which monitored the dephosphorylation of the synthetic substrate OMFP, essentially as previously described. In steady-state enzyme kinetic studies, the residual phosphatase activity of purified recombinant CDC25B was measured at 30°C in the presence of different concentrations of the various inhibitors, using a computer-assisted Cary Eclipse spectrofluorimeter (Varian) equipped with an electronic temperature controller. Excitation and emission wavelengths were set at 485 and 530 nm, respectively; both excitation and emission slits were set at 10 nm. The reaction mixture contained 10 nM CDC25B and different concentrations of the various inhibitors in 500 μL final volume of 20 mM Tris-HCl, pH 7.8, 1 mM DTT. DMSO was used as vehicle control. The reaction started by the addition of 25 μM OMFP, and the formation of the fluorescent product o-methylfluorescein was monitored continuously. The rate of OMFP hydrolysis was expressed as arbitrary units per min (a.u./min). The comparison of the rates determined in the absence and in the presence of the various inhibitors allowed the calculation of the residual phosphatase activity, expressed as a percentage.

A2058 cells = test: Mitochondrial membrane potential (R123), A2058 cells; assay type: cell-based, human; details: A2058, 100 μM, 24 h up to 72 h
Procedure: Mitochondria represent the primary source of ROS, as well the target of ROS action, and therefore, compound 7 could affect their functionality in melanoma cells. […] Proteins belonging to the B-cell lymphoma-2 (Bcl-2) family are involved in the modulation of the mitochondrial functionality. Therefore, we have evaluated the levels of the anti-apoptotic protein Bcl-2, as well as that of the pro-apoptotic Bcl-2-associated X protein (Bax), after incubation with 7 (Figure 10B). […] To further investigate the occurrence of a mitochondrial-mediated apoptosis induced by 7, the caspase-9 activity was assayed. […] The effect of compound 7 was investigated also in SAN cells and the overall results were similar to those observed in A2058 (Supplementary Figure S6).
Mitochondrial membrane potential was evaluated by measuring the incorporation of the fluorescent probe R123, essentially as previously described. Briefly, cells were seeded into 6-well-plates (3 × 10^5 cells/well) for 24 h at 37°C, and then incubated at 37°C for 1 h in the presence of 5 μM R123, washed twice with PBS, and placed in medium containing 100 μM compound 7 or 0.5% DMSO. […] The fluorescence of cell-associated R123 was detected in the above-mentioned fluorescence spectrophotometer, using excitation and emission wavelengths of 490 and 520 nm, respectively; both excitation and emission slits were set at 10 nm.

remaining activity at 0.2 µM (CDC25B; 0.2 μM inhibitor): 44%
remaining activity at 1 µM (CDC25B; 1 μM inhibitor): 1%
SMILES: O=C(O)C1CCCCC1c1c2ccc(=O)cc-2oc2cc(O)ccc12 (stereo not drawn) [Compound 7, 2-(6-hydroxy-3-oxo-3H-xanthen-9-yl)cyclohexanecarboxylic acid]
level of apoptosis caused by 7 in the presence of Z-VAD-FMK (SAN cells; 100 μM 7 + 100 μM Z-VAD-FMK, 48 h): significantly decreased
apoptosis (nuclei with sub-diploid content) (SAN cells; 100 μM, 24-72 h): increase of apoptosis was significant even at 24-h treatment
apoptosis after NAC pre-treatment (SAN cells; NAC pre-treatment, 100 μM 7, 48 h): in a great part reverted
mitochondrial membrane potential (R123 fluorescence) (A2058 cells): reduction of the mitochondrial membrane potential
